Test results from ChEMBL document CHEMBL1152723, “Remarkable enhancement in the DNA-binding ability of C2-fluoro substituted pyrrolo[2,1-c][1,4]benzodiazepines and their anticancer potential” (2009).

Assays:
[1] = tested on: DNA; assay: Binding affinity to calf thymus DNA assessed as change in melting temperature at a compound to DNA molar ratio of 1:5 at pH 7 by thermal denaturation assay; format: nucleic-acid assay; conditions: Bos taurus
[2] = tested on: SF-268; assay: Growth inhibition of human SF268 cells after 48 hrs by sulforhodamine B protein assay; format: functional; conditions: SF-268, 48 h
[3] = tested on: SK-OV-3; assay: Growth inhibition of human SKOV3 cells after 48 hrs by sulforhodamine B protein assay; format: functional; conditions: SK-OV-3, 48 h
[4] = tested on: PC-3; assay: Growth inhibition of human PC3 cells after 48 hrs by sulforhodamine B protein assay; format: functional; conditions: PC-3, 48 h
[5] = tested on: MDA-MB-435; assay: Growth inhibition of human MDA-MB-435 cells after 48 hrs by sulforhodamine B protein assay; format: functional; conditions: MDA-MB-435, 48 h
[6] = tested on: T47D; assay: Growth inhibition of human T47D cells after 48 hrs by sulforhodamine B protein assay; format: functional
[7] = tested on: UACC-62; assay: Growth inhibition of human UACC62 cells after 48 hrs by sulforhodamine B protein assay; format: functional; conditions: UACC-62, 48 h
[8] = tested on: BT-549; assay: Growth inhibition of human BT549 cells after 48 hrs by sulforhodamine B protein assay; format: functional; conditions: BT-549, 48 h
[9] = tested on: HT-29; assay: Growth inhibition of human HT-29 cells after 48 hrs by sulforhodamine B protein assay; format: functional; conditions: HT-29, 48 h
[10] = tested on: Malme-3M; assay: Growth inhibition of human MALME-3M cells after 48 hrs by sulforhodamine B protein assay; format: functional
[11] = tested on: COLO 205; assay: Growth inhibition of human COLO205 cells after 48 hrs by sulforhodamine B protein assay; format: functional; conditions: COLO 205, 48 h
[12] = tested on: A549; assay: Growth inhibition of human A549 cells after 48 hrs by sulforhodamine B protein assay; format: functional; conditions: A549, 48 h
[13] = biological target: T1, Type II restriction enzyme BamHI (Bacillus amyloliquefaciens) (UniProt P23940); assay: Inhibition of Bacillus amyloliquefaciens BamH1-mediated pBR322 cleavage after 16 hrs by RED100-restriction endonuclease digestion assay
T1 sequence (whole entry): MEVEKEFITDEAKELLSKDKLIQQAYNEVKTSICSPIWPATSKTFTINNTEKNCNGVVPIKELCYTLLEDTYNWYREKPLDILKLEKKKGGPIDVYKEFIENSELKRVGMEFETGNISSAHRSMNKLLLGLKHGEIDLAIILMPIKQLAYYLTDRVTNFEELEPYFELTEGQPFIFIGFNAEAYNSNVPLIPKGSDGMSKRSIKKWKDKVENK

[14] = tested on: HOP-92; assay: Growth inhibition of human HOP92 cells after 48 hrs by sulforhodamine B protein assay; format: functional; conditions: HOP-92, 48 h
[15] = tested on: HL-60(TB); assay: Growth inhibition of human HL-60(TB) cells after 48 hrs by sulforhodamine B protein assay; format: functional; conditions: HL-60, 48 h
[16] = tested on: CAKI-1; assay: Growth inhibition of human Caki1 cells after 48 hrs by sulforhodamine B protein assay; format: functional; conditions: CAKI-1, 48 h
[17] = tested on: NCI-H23; assay: Growth inhibition of human NCI-H23 cells after 48 hrs by sulforhodamine B protein assay; format: functional; conditions: NCI-H23, 48 h
[18] = Growth inhibition of human Hs 578T cells after 48 hrs by sulforhodamine B protein assay; format: functional
[19] = tested on: SK-MEL-5; assay: Growth inhibition of human SK-MEL-5 cells after 48 hrs by sulforhodamine B protein assay; format: functional; conditions: SK-MEL-5, 48 h
[20] = tested on: SN12C; assay: Growth inhibition of human SN12C cells after 48 hrs by sulforhodamine B protein assay; format: functional
[21] = tested on: CCRF-CEM; assay: Growth inhibition of human CCRF-CEM cells after 48 hrs by sulforhodamine B protein assay; format: functional
[22] = tested on: HCC 2998; assay: Growth inhibition of human HCC2998 cells after 48 hrs by sulforhodamine B protein assay; format: functional; conditions: HCC 2998, 48 h
[23] = tested on: U-251; assay: Growth inhibition of human U251 cells after 48 hrs by sulforhodamine B protein assay; format: functional; conditions: U-251, 48 h
[24] = tested on: MDA-MB-231; assay: Growth inhibition of human MDA-MB-231 cells after 48 hrs by sulforhodamine B protein assay; format: functional; conditions: MDA-MB-231, 48 h
[25] = tested on: KM12; assay: Growth inhibition of human KM12 cells after 48 hrs by sulforhodamine B protein assay; format: functional; conditions: KM12, 48 h
[26] = tested on: IGROV-1; assay: Growth inhibition of human IGROV1 cells after 48 hrs by sulforhodamine B protein assay; format: functional; conditions: IGROV-1, 48 h
[27] = tested on: OVCAR-5; assay: Growth inhibition of human OVCAR5 cells after 48 hrs by sulforhodamine B protein assay; format: functional; conditions: OVCAR-5, 48 h
[28] = tested on: DU-145; assay: Growth inhibition of human DU145 cells after 48 hrs by sulforhodamine B protein assay; format: functional; conditions: DU-145, 48 h
[29] = tested on: SNB-75; assay: Growth inhibition of human SNB75 cells after 48 hrs by sulforhodamine B protein assay; format: functional; conditions: SNB-75, 48 h
[30] = tested on: SK-MEL-28; assay: Growth inhibition of human SK-MEL-28 cells after 48 hrs by sulforhodamine B protein assay; format: functional; conditions: SK-MEL-28, 48 h
[31] = tested on: K562; assay: Growth inhibition of human K562 cells after 48 hrs by sulforhodamine B protein assay; format: functional; conditions: K562, 48 h
[32] = tested on: M14; assay: Growth inhibition of human M14 cells after 48 hrs by sulforhodamine B protein assay; format: functional; conditions: M14, 48 h
[33] = tested on: ACHN; assay: Growth inhibition of human ACHN cells after 48 hrs by sulforhodamine B protein assay; format: functional
[34] = tested on: RXF 393; assay: Growth inhibition of human […] cells after 48 hrs by sulforhodamine B protein assay; format: functional; conditions: RXF 393, 48 h
[35] = tested on: SF-539; assay: Growth inhibition of human SF539 cells after 48 hrs by sulforhodamine B protein assay; format: functional; conditions: SF-539, 48 h
[36] = Growth inhibition of human […] cells after 48 hrs by sulforhodamine B protein assay; format: functional
[37] = tested on: OVCAR-8; assay: Growth inhibition of human OVCAR8 cells after 48 hrs by sulforhodamine B protein assay; format: functional; conditions: OVCAR-8, 48 h
[38] = tested on: SNB-19; assay: Growth inhibition of human SNB19 cells after 48 hrs by sulforhodamine B protein assay; format: functional; conditions: SNB-19, 48 h
[39] = tested on: MDA-MB-468; assay: Growth inhibition of human MDA-MB-468 cells after 48 hrs by sulforhodamine B protein assay; format: functional; conditions: MDA-MB-468, 48 h
[40] = tested on: NCI-H522; assay: Growth inhibition of human NCI-H522 cells after 48 hrs by sulforhodamine B protein assay; format: functional; conditions: NCI-H522, 48 h
[41] = tested on: OVCAR-3; assay: Growth inhibition of human OVCAR-3 cells after 48 hrs by sulforhodamine B protein assay; format: functional; conditions: OVCAR-3, 48 h
[42] = tested on: HCT-116; assay: Growth inhibition of human HCT116 cells after 48 hrs by sulforhodamine B protein assay; format: functional; conditions: HCT-116, 48 h
[43] = tested on: MCF7; assay: Growth inhibition of human MCF7 cells after 48 hrs by sulforhodamine B protein assay; format: functional; conditions: MCF7, 48 h
[44] = tested on: MOLT-4; assay: Growth inhibition of human MOLT4 cells after 48 hrs by sulforhodamine B protein assay; format: functional; conditions: MOLT-4, 48 h
[45] = tested on: LOX IMVI; assay: Growth inhibition of human LOXIMVI cells after 48 hrs by sulforhodamine B protein assay; format: functional
[46] = tested on: A498; assay: Growth inhibition of human A498 cells after 48 hrs by sulforhodamine B protein assay; format: functional; conditions: A498, 48 h
[47] = tested on: NCI-H460; assay: Growth inhibition of human NCI-H460 cells after 48 hrs by sulforhodamine B protein assay; format: functional; conditions: NCI-H460, 48 h
[48] = tested on: 786-0; assay: Growth inhibition of human 786-0 cells after 48 hrs by sulforhodamine B protein assay; format: functional; conditions: 786-0, 48 h
[49] = tested on: HOP-62; assay: Growth inhibition of human HOP62 cells after 48 hrs by sulforhodamine B protein assay; format: functional; conditions: HOP-62, 48 h
[50] = tested on: SW-620; assay: Growth inhibition of human SW620 cells after 48 hrs by sulforhodamine B protein assay; format: functional; conditions: SW-620, 48 h
[51] = tested on: TK-10; assay: Growth inhibition of human TK10 cells after 48 hrs by sulforhodamine B protein assay; format: functional; conditions: TK-10, 48 h
[52] = tested on: SR; assay: Growth inhibition of human SR cells after 48 hrs by sulforhodamine B protein assay; format: functional

COc1cc2c(cc1OCCCCN1CCN(CCCCOc3cc4c(cc3OC)C(=O)N3CC(F)C[C@H]3C=N4)CC1)N=C[C@@H]1CC(F)CN1C2=O (stereo partly drawn)
ΔTm [1]: 38 °C

COc1cc2c(cc1OCCCN1CCN(CCCOc3cc4c(cc3OC)C(=O)N3CC(F)(F)C[C@H]3C=N4)CC1)N=C[C@@H]1CC(F)(F)CN1C2=O
GI50 [2]: 3.57 µM | GI50 [3]: 8.64 µM | GI50 [4]: 3.06 µM | GI50 [5]: 2.94 µM | ΔTm [1]: 11 °C | GI50 [6]: 3.25 µM | GI50 [7]: 3.05 µM | GI50 [8]: 1.95 µM | GI50 [9]: 3.61 µM | GI50 [10]: 2.8 µM | GI50 [11]: 3.09 µM | GI50 [12]: 7.32 µM | Activity [13]: Dose-dependent effect | GI50 [14]: 6.14 µM | GI50 [15]: 1.18 µM | GI50 [16]: 3.31 µM | GI50 [17]: 4.66 µM | GI50 [18]: 2.32 µM | GI50 [19]: 4.28 µM | GI50 [20]: 4.05 µM | GI50 [21]: 0.97 µM | GI50 [22]: 5.4 µM | GI50 [23]: 3.36 µM | GI50 [24]: 4.29 µM | GI50 [25]: 4.1 µM | GI50 [26]: 1.92 µM | GI50 [27]: 3.83 µM | GI50 [28]: 3.63 µM | GI50 [29]: 5.52 µM | GI50 [30]: 1.86 µM | GI50 [31]: 1.74 µM | GI50 [32]: 3.25 µM | GI50 [33]: 5.64 µM | GI50 [34]: 2.14 µM | GI50 [35]: 3.05 µM | GI50 [36]: 2.2 µM | GI50 [37]: 6.3 µM | GI50 [38]: 4.08 µM | GI50 [39]: 1.38 µM | GI50 [40]: 1.14 µM | GI50 [41]: 3.55 µM | GI50 [42]: 3.59 µM | GI50 [43]: 2.02 µM | GI50 [44]: 2.02 µM | GI50 [45]: 1.89 µM | GI50 [46]: 2.43 µM | GI50 [47]: 2.6 µM | GI50 [48]: 3.17 µM | GI50 [49]: 3.17 µM | GI50 [50]: 2.61 µM | GI50 [51]: 4.38 µM | GI50 [52]: 0.88 µM
